Patent publication US10758534B2 (Vertex Pharmaceuticals Incorporated, priority 2014, dated 2020)

Each molecule was assayed against T1, F508del (Homo sapiens, UniProt P13569, DEL508-508) (assay: Protocol 1: membrane potential optical assay (FLIPR III, voltage sensing dye), identification of potentiator compounds). Conditions: Table 3, compounds of Table 1.
T1 construct: expressed in transfected cells
T1 sequence (P13569 with tags, fused parts or gaps DEL508-508): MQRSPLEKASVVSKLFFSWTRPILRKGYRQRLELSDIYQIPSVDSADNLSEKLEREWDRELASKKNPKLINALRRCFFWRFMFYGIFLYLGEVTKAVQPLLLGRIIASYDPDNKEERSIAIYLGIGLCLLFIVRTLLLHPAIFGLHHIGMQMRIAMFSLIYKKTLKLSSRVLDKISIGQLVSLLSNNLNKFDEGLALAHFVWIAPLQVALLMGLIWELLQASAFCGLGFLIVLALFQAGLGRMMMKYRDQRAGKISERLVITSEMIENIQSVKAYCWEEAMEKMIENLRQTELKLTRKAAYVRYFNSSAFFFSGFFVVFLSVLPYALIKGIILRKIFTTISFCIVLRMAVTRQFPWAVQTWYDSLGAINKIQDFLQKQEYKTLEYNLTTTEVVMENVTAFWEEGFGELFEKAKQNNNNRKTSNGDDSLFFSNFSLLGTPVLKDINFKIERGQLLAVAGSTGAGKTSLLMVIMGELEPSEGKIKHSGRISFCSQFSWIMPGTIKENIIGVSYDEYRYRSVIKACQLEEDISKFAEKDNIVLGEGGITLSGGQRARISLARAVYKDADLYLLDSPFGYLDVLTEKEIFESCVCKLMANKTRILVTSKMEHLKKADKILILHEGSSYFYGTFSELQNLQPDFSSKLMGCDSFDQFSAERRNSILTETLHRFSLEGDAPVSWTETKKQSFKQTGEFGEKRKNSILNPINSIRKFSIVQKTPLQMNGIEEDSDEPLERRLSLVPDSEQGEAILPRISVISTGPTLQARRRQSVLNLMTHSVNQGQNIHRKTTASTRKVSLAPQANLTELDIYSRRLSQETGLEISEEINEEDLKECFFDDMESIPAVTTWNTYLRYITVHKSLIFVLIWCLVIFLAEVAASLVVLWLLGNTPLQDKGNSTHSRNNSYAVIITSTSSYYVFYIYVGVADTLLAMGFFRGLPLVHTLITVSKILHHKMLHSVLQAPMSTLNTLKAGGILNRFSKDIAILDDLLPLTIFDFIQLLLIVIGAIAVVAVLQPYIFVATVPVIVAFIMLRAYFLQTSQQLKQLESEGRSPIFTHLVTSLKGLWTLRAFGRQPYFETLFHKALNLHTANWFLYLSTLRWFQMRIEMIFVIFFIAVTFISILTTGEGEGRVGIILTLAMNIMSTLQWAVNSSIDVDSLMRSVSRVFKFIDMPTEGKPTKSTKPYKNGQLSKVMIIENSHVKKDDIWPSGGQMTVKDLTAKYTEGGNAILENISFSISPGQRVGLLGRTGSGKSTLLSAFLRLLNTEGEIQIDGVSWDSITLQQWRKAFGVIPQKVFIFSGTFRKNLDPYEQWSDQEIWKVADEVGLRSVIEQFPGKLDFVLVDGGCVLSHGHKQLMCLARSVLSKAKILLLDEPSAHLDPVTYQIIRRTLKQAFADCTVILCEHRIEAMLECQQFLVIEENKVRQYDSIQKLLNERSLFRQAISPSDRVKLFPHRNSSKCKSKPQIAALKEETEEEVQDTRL
Format: cell-based
From the text: Membrane Potential Optical Methods for Assaying F508del Modulation Properties of Compounds
The assay utilizes fluorescent voltage sensing dyes to measure changes in membrane potential using a fluorescent plate reader (e.g., FLIPR III, Molecular Devices, Inc.) as a readout for increase in functional F508del in NIH 3T3 cells. The driving force for the response is the creation of a chloride ion gradient in conjunction with channel activation by a single liquid addition step after the cells have previously been treated with compounds and subsequently loaded with a voltage sensing dye.
Identification of Potentiator Compounds
To identify potentiators of F508del, a double-addition HTS assay format was developed. This HTS assay utilizes fluorescent voltage sensing dyes to measure changes in membrane potential on the FLIPR III as a measurement for increase in gating (conductance) of F508del in temperature-corrected F508del NIH 3T3 cells. The driving force for the response is a Cl^− ion gradient in conjunction with channel activation with forskolin in a single liquid addition step using a fluorescent plate reader such as FLIPR III after the cells have previously been treated with potentiator compounds (or DMSO vehicle control) and subsequently loaded with a redistribution dye.
Bath Solution #1: (in mM) NaCl 160, KCl 4.5, CaCl2 2, MgCl2 1, HEPES 10, pH 7.4 with NaOH.
Chloride-free bath solution: Chloride salts in Bath Solution #1 (above) are substituted with gluconate salts.
NIH3T3 mouse fibroblasts stably expressing F508del are used for optical measurements of membrane potential. The cells are maintained at 37° C. in 5% CO2 and 90% humidity in Dulbecco's modified Eagle's medium supplemented with 2 mM glutamine, 10% fetal bovine serum, 1×NEAA, β-ME, 1× pen/strep, and 25 mM HEPES in 175 cm^2 culture flasks. For all optical assays, the cells were seeded at ˜20,000/well in 384-well matrigel-coated plates and cultured for 2 hrs at 37° C. before culturing at 27° C. for 24 hrs. for the potentiator assay. For the correction assays, the cells are cultured at 27° C. or 37° C. with and without compounds for 16-24 hours.
`Cc1cc(C)c(CN2Cc3ccccc3C2(C)C(=O)NS(=O)(=O)c2cccc(N)n2)c(C)c1` (centres unmarked) [Compound 895, N-[(6-amino-2-pyridyl)sulfonyl]-1-methyl-2-[(2,4,6-trimethylphenyl)methyl]isoindoline-1-carboxamide] was tested, and the EC30 was “+++ (“+++” means <3 uM)”.
`Cc1c(F)cccc1-c1ccc(C(=O)NS(=O)(=O)c2cccnc2N)c(N2C[C@@H](C)CC2(C)C)n1` [Compound 1944, N-[(2-amino-3-pyridyl)sulfonyl]-6-(3-fluoro-2-methyl-phenyl)-2-[(4S)-2,2,4-trimethylpyrrolidin-1-yl]pyridine-3-carboxamide] was tested, and the EC30 was “+++ (“+++” means <3 uM)”.
For `COc1cc(OC)cc(-c2ccc(C(=O)NS(=O)(=O)c3cccc(N)n3)c(N3C[C@@H](C)CC3(C)C)n2)c1` [Compound 1471, N-[(6-amino-2-pyridyl)sulfonyl]-6-(3,5-dimethoxyphenyl)-2-[(4S)-2,2,4-trimethylpyrrolidin-1-yl]pyridine-3-carboxamide], the EC30 was “+++ (“+++” means <3 uM)”.
For `Cc1cc(C)c(Oc2nc(-c3ccccn3)ccc2C(=O)NS(=O)(=O)c2cccc(N)n2)c(C)c1` [Compound 1278, N-[(6-amino-2-pyridyl)sulfonyl]-6-(2-pyridyl)-2-(2,4,6-trimethylphenoxy)pyridine-3-carboxamide], the EC30 was “+ (“+” means greater than 10 uM)”.
`CC(C)Oc1ccc(-c2ccc(C(=O)NS(=O)(=O)c3cccc(N)n3)c(N3CCC(C)C(C)C3)n2)cn1` (centres unmarked) [Compound 979, N-[(6-amino-2-pyridyl)sulfonyl]-2-(3,4-dimethyl-1-piperidyl)-6-(6-isopropoxy-3-pyridyl)pyridine-3-carboxamide] was tested, and the EC30 was “+++ (“+++” means <3 uM)”.
In the case of `CCOc1cccc2c1CN(Cc1c(C)cc(C)cc1C)C2(C)C(=O)NS(=O)(=O)c1ccc(O)cc1` (centres unmarked) [Compound 1453, 4-ethoxy-N-(4-hydroxyphenyl)sulfonyl-1-methyl-2-[(2,4,6-trimethylphenyl)methyl]isoindoline-1-carboxamide], the EC30 was “+++ (“+++” means <3 uM)”.
In the case of `CCOc1ccc(-c2ccc(C(=O)NS(=O)(=O)c3cccnc3N)c(N3C[C@@H](C)CC3(C)C)n2)cc1` [Compound 1945, N-[(2-amino-3-pyridyl)sulfonyl]-6-(4-ethoxyphenyl)-2-[(4S)-2,2,4-trimethylpyrrolidin-1-yl]pyridine-3-carboxamide], the EC30 was “+++ (“+++” means <3 uM)”.
With `C[C@@H]1CN(c2nc(C3=CCCN(C(=O)c4cccc(Cl)c4)C3)ccc2C(=O)NS(=O)(=O)c2cccc(N)n2)C(C)(C)C1` [Compound 1984, N-[(6-amino-2-pyridyl)sulfonyl]-6-[1-(3-chlorobenzoyl)-3,6-dihydro-2H-pyridin-5-yl]-2-[(4S)-2,2,4-trimethylpyrrolidin-1-yl]pyridine-3-carboxamide] the EC30 was “++ (“++” means between 3 uM and 10 uM)”.
With `CCOc1cccc2c1CN(Cc1c(C)cc(C)cc1C)C2(C)C(=O)NS(=O)(=O)c1ccc(F)c(N)c1` (centres unmarked) [Compound 1394, N-(3-amino-4-fluoro-phenyl)sulfonyl-4-ethoxy-1-methyl-2-[(2,4,6-trimethylphenyl)methyl]isoindoline-1-carboxamide] the EC30 was “+++ (“+++” means <3 uM)”.
In the case of `CCOc1ccc(-c2ccc(C(=O)NS(=O)(=O)c3ccc[nH]c3=O)c(Oc3c(C)cc(C)cc3C)n2)cc1` [Compound 1179, 6-(4-ethoxyphenyl)-N-[(2-oxo-1H-pyridin-3-yl)sulfonyl]-2-(2,4,6-trimethylphenoxy)pyridine-3-carboxamide], the EC30 was “++ (“++” means between 3 uM and 10 uM)”.
`CC(C)COc1cc(F)cc(-c2ccc(C(=O)NS(=O)(=O)c3cccc(N)n3)c(OCC3CC3)n2)c1` [Compound 1229, N-[(6-amino-2-pyridyl)sulfonyl]-2-(cyclopropylmethoxy)-6-(3-fluoro-5-isobutoxy-phenyl)pyridine-3-carboxamide] was tested, and the EC30 was “+++ (“+++” means <3 uM)”.
For `Cc1cc(C)c(Oc2nc(C3=CCC(C)CC3)ccc2C(=O)NS(=O)(=O)c2ccc[nH]c2=O)c(C)c1` (centres unmarked) [Compound 1052, 6-(4-methylcyclohexen-1-yl)-N-[(2-oxo-1H-pyridin-3-yl)sulfonyl]-2-(2,4,6-trimethylphenoxy)pyridine-3-carboxamide], the EC30 was “+++ (“+++” means <3 uM)”.
With `CC(C)(C)c1ccc(C(=O)NS(=O)(=O)c2cccc(N)n2)c(OC2CCC2)n1` [Compound 1154, N-[(6-amino-2-pyridyl)sulfonyl]-6-tert-butyl-2-(cyclobutoxy)pyridine-3-carboxamide] the EC30 was “++ (“++” means between 3 uM and 10 uM)”.
`COc1cccc2c1C(C)(C(=O)NS(=O)(=O)c1cccc(N)n1)N(Cc1c(C)cc(C)cc1C)C2` (centres unmarked) [Compound 1075, N-[(6-amino-2-pyridyl)sulfonyl]-7-methoxy-1-methyl-2-[(2,4,6-trimethylphenyl)methyl]isoindoline-1-carboxamide] was tested, and the EC30 was “+++ (“+++” means <3 uM)”.
For `CC(C)COc1cncc(-c2ccc(C(=O)NS(=O)(=O)c3cccc(N)n3)c(N3CC(C)CC3(C)C)n2)n1` (centres unmarked) [Compound 988, N-[(6-amino-2-pyridyl)sulfonyl]-6-(6-isobutoxypyrazin-2-yl)-2-(2,2,4-trimethylpyrrolidin-1-yl)pyridine-3-carboxamide], the EC30 was “+++ (“+++” means <3 uM)”.
For `CCN(CC)c1cc(-c2ccc(C(=O)NS(=O)(=O)c3cccc(N)n3)c(N3C[C@@H](C)CC3(C)C)n2)cc(C)n1` [Compound 1739, N-[(6-amino-2-pyridyl)sulfonyl]-6-[2-(diethylamino)-6-methyl-4-pyridyl]-2-[(4S)-2,2,4-trimethylpyrrolidin-1-yl]pyridine-3-carboxamide], the EC30 was “+++ (“+++” means <3 uM)”.
For `Cc1cc(C)c(Oc2nc(C3CCCCCC3)ccc2C(=O)NS(=O)(=O)c2cccc(N)n2)c(C)c1` [Compound 1376, N-[(6-amino-2-pyridyl)sulfonyl]-6-cycloheptyl-2-(2,4,6-trimethylphenoxy)pyridine-3-carboxamide], the EC30 was “+++ (“+++” means <3 uM)”.
For `CC1CCC(Oc2cccc(S(=O)(=O)NC(=O)c3cccnc3N3CC(C)CC3(C)C)n2)C1` (centres unmarked) [Compound 1884, N—[[6-(3-methylcyclopentoxy)-2-pyridyl]sulfonyl]-2-(2,2,4-trimethylpyrrolidin-1-yl)pyridine-3-carboxamide], the EC30 was “+++ (“+++” means <3 uM)”.
In the case of `Cc1cc(C)c(Oc2nc(-c3cn(C)nc3C(F)(F)F)ccc2C(=O)NS(=O)(=O)c2cccc(N)n2)c(C)c1` [Compound 812, N-[(6-amino-2-pyridyl)sulfonyl]-6-[1-methyl-3-(trifluoromethyl)pyrazol-4-yl]-2-(2,4,6-trimethylphenoxy)pyridine-3-carboxamide], the EC30 was “++ (“++” means between 3 uM and 10 uM)”.
For `CC1CN(c2nc(-c3cnc(OC(C)C)cn3)ccc2C(=O)NS(=O)(=O)c2cccc(N)n2)C(C)(C)C1` (centres unmarked) [Compound 965, N-[(6-amino-2-pyridyl)sulfonyl]-6-(5-isopropoxypyrazin-2-yl)-2-(2,2,4-trimethylpyrrolidin-1-yl)pyridine-3-carboxamide], the EC30 was “+++ (“+++” means <3 uM)”.
`Cc1cc(C)c(Oc2nc3c(cc2C(=O)NS(=O)(=O)c2nccnc2N)CCCC3(C)C)c(C)c1` [Compound 1223, N-(3-aminopyrazin-2-yl)sulfonyl-8,8-dimethyl-2-(2,4,6-trimethylphenoxy)-6,7-dihydro-5H-quinoline-3-carboxamide] was tested, and the EC30 was “+++ (“+++” means <3 uM)”.
For `CCOc1cc(-c2ccc(C(=O)NS(=O)(=O)c3ccc[nH]c3=O)c(Oc3c(C)cc(C)cc3C)n2)ccc1F` [Compound 917, 6-(3-ethoxy-4-fluoro-phenyl)-N-[(2-oxo-1H-pyridin-3-yl)sulfonyl]-2-(2,4,6-trimethylphenoxy)pyridine-3-carboxamide], the EC30 was “++ (“++” means between 3 uM and 10 uM)”.
In the case of `C[C@@H]1CN(c2nc(C(C)(C)C)c(C(O)C(O)C(C)(C)C)cc2C(=O)NS(=O)(=O)c2cccc(N)n2)C(C)(C)C1` (some centres unmarked) [Compound 1883], the EC30 was “+++ (“+++” means <3 uM)”.
For `CC1CN(c2ncccc2C(=O)NS(=O)(=O)c2cccc(N3Cc4cccc5cccc(c45)C3)n2)C(C)(C)C1` (centres unmarked) [Compound 1986, N—[[6-(1,3-dihydrobenzo[de]isoquinolin-2-yl)-2-pyridyl]sulfonyl]-2-(2,2,4-trimethylpyrrolidin-1-yl)pyridine-3-carboxamide], the EC30 was “+++ (“+++” means <3 uM)”.
In the case of `CC(C)COc1cc(F)cc(-c2ccc(C(=O)NS(=O)(=O)c3ccn[nH]3)c(N3CCCC3Cc3ccccc3)n2)c1` (centres unmarked) [Compound 1257, 2-(2-benzylpyrrolidin-1-yl)-6-(3-fluoro-5-isobutoxy-phenyl)-N-(1H-pyrazol-5-ylsulfonyl)pyridine-3-carboxamide], the EC30 was “++ (“++” means between 3 uM and 10 uM)”.
For `CC(C)Oc1ccc(-c2ccc(C(=O)NS(=O)(=O)c3cccc(N)n3)c(N3CCCC3C3CC3)n2)cn1` (centres unmarked) [Compound 928, N-[(6-amino-2-pyridyl)sulfonyl]-2-(2-cyclopropylpyrrolidin-1-yl)-6-(6-isopropoxy-3-pyridyl)pyridine-3-carboxamide], the EC30 was “+++ (“+++” means <3 uM)”.
